Reference: patent publication US4826815A, “Renin inhibiting compounds” (Abbott Laboratories, priority 1987, dated 1989)

molecular target: T1, human renal renin (Homo sapiens, UniProt P00797); test: In vitro inhibition of human renal renin; angiotensin I formed measured by radioimmunoassay; type: biochemical; details: @ 10^-5; human renin substrate (angiotensinogen), 37° C., pH 6.0
T1 construct: human renal renin, free from acid proteolytic activity; from tissue
T1 sequence (P00797 67-406): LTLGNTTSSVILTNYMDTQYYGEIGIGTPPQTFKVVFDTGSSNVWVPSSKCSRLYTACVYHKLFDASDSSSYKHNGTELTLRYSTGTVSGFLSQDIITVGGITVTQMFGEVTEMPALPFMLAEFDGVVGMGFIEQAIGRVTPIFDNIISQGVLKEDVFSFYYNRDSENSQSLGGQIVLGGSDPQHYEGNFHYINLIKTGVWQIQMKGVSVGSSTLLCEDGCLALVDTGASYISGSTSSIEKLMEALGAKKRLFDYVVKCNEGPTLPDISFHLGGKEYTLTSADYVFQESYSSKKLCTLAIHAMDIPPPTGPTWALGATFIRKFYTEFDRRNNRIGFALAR
Procedure: At the end of the incubation, the amount of angiotensin I formed is measured by radioimmunoassay and the percent inhibition or renin is calculated.

| Inhibition | Structure (SMILES) |
| --- | --- |
| 56% | CC(C)CC(NC(=O)C(C)NC(=O)C(Cc1ccccc1)NC(=O)OC(C)(C)C)C(O)CSc1ccccc1 (stereo not drawn) [Example 25, Boc-Phe-Ala amide of 3-amino-2-hydroxy-5-methyl-1 phenylmercaptohexane] |
| 57% | CC(C)CC(NC(=O)C(C)NC(=O)C(Cc1ccccc1)NC(=O)OC(C)(C)C)C(O)CSCc1ccccc1 (stereo not drawn) [Example 28, Boc-Phe-Ala amide of 3 amino 1-benzylmercapto-2 hydroxy-5-methylhexane] |
| 94% | CC(C)CC(NC(=O)C(C)NC(=O)C(Cc1ccccc1)NC(=O)OC(C)(C)C)C(O)CSC1CCCCC1 (stereo not drawn) [Example 29, Boc-Phe-Ala amide of 3-amino-1-cyclohexyl mercapto-2-hydroxy-5-methylhexane] |
| 31% | CC(C)CC(NC(=O)C(C)NC(=O)C(Cc1ccccc1)NC(=O)OC(C)(C)C)C(O)CNc1ccccc1 (stereo not drawn) [Example 31, Boc-Phe-Ala amide of 3-amino-2-hydroxy-5-methyl-1-phenylaminohexane] |
| 46% | CC(C)CC(NC(=O)C(C)NC(=O)C(Cc1ccccc1)NC(=O)OC(C)(C)C)C(O)C[S+]([O-])C1CCCCC1 (stereo not drawn) [Example 55, Boc-Phe Ala amide of 3-amino-1-cyclohexyl sulfinyl-2-hydroxy-5-methylhexane] |

same assay, conditions: @ 10^-6; human renin substrate (angiotensinogen), 37° C., pH 6.0

| Inhibition | Structure (SMILES) |
| --- | --- |
| 56% | CC(C)CC(NC(=O)C(Cc1cnc[nH]1)NC(=O)C(Cc1ccccc1)NC(=O)OC(C)(C)C)C(O)CSc1ccccc1 (stereo not drawn) [Example 23, Boc-Phe-His amide of 3-amino-2 hydroxy-5-methyl 1-phenylmercaptohexane] |
| 63% | CC(C)CC(=O)NCC(O)C(CC(C)C)NC(=O)C(Cc1cnc[nH]1)NC(=O)C(Cc1ccccc1)NC(=O)OC(C)(C)C (stereo not drawn) [Example 79, Boc-Phe-His Amide of 3-Amino-2- hydroxy-1-(isovalerylamino)-5-methylhexane] |

same assay, conditions: @ 10^-7; human renin substrate (angiotensinogen), 37° C., pH 6.0

| Inhibition | Structure (SMILES) |
| --- | --- |
| 89% | CC(C)(C)OC(=O)NC(Cc1ccccc1)C(=O)NC(Cc1cnc[nH]1)C(=O)NC(Cc1ccccc1)C(O)CSC1CCCCC1 (stereo not drawn) [Example 50, Boc-Phe-His amide of 3-amino-1-cyclohexylmercapto-2-hydroxy-4-phenylbutane] |
| 71% | O=C(NC(Cc1cnc[nH]1)C(=O)NC(CC1CCCCC1)C(O)CSC1CCCCC1)C(Cc1ccccc1)Cc1ccccc1 (stereo not drawn) [Example 81, Dba-His Amide of 3-amino-4-cyclohexyl-1-cyclohexylmercapto-2-hydroxybutane] |

same assay, conditions: @ 10^-8; human renin substrate (angiotensinogen), 37° C., pH 6.0

| Inhibition | Structure (SMILES) |
| --- | --- |
| 80% | CC(C)SCC(O)C(CC1CCCCC1)NC(=O)C(Cc1cnc[nH]1)NC(=O)C(Cc1ccccc1)NC(=O)OC(C)(C)C (stereo not drawn) [Example 51, Boc-Phe-His amide of 3 amino-4-cyclohexyl-2-hydroxy-1-isopropylmercaptobutane] |
| 81% | CC(C)(C)OC(=O)NC(Cc1ccccc1)C(=O)NC(Cc1cnc[nH]1)C(=O)NC(CC1CCCCC1)C(O)CS(=O)(=O)C1CCCCC1 (stereo not drawn) [Example 54, Boc-Phe-His amide of 3 amino-4-cyclohexyl-1-cyclohexylsulfonyl-2-hydroxybutane] |
| 82% | CC(C)(C)CC(=O)NC(Cc1ccccc1)C(=O)NC(Cc1c[nH]cn1)C(=O)NC(CC1CCCCC1)C(O)CSC1CCCCC1 (stereo not drawn) [Example 82, Tba-Phe-His-Amide of 3-amino-4-cyclohexyl-1-cyclohexylmercapto-2-hydroxybutane] |
